Experimental data published in patent US10758609B2, “Cross-reactive T-cell epitopes of HIV, SIV, and FIV for vaccines in humans and cats” (priority 2015, dated 2020).
Residues, ends and D or L forms follow the SMILES beside them.

Key:
[1] = system: CD4^+ T cells from HIV^+ subjects; conditions: HIV+ human subjects; for CyCD4: CD4+ T-cell cytolysin/cytotoxins (perforin, GrzA & B), frequency of responders: HIV-1 epitope peptide, threshold ≥0.2%; for CyCD4 (cytolysin and cytotoxin production of CD4+ T cells), frequency of responders: HIV-1 peptides
Protocol: (§1) The overlapping peptide pools of FIV and HIV-1 structural and enzyme proteins were used to stimulate the […] (PBMC) and the T cells from HIV^+ subjects as previously described for epitope mapping of HIV-1 and FIV p24 and reverse transcriptase (RT) (Sanou et al., 2013; Roff et al., 2015). The individual peptides in those peptide pools with positive responses to either interferon-γ (IFNγ) production and/or T-cell proliferation were determined with IFNγ ELISpot analysis and CFSE-based CD3^+CD4^+ and CD3^+CD8^+ T-cell proliferation analyses followed by the FACS-based intracellular staining (ICS) for cytolysin (perforin) and cytotoxin (granzyme A [GrzA] and GrzB) (Sanou et al., 2013; Roff et al., 2015). Besides viral p24 and RT proteins, the identical approach was used to identify anti-HIV/FIV T-cell epitopes on viral matrix (MA), nucleocapsid (NC), protease (PR), RNAase, integrase (IN), surface envelope (SU Env), and transmembrane envelope (TM Env) (FIG. 12).
(§2) Since our goal is to develop HIV vaccine for human use, the HIV peptides (Table 10) counterpart of the cross-reactive FIV peptides shown in Table 9 were tested with PBMC and T cells from HIV^+ subjects. The immune functions analyzed were human IFNγ production by ELISpot, cytolysin/cytotoxin production by ICS, and CFSE-based proliferation of CD3^+CD4^+ and CD3^+CD8^+ T cells from HIV^+ subjects (Table 10, the first set of results). In addition, the Los Alamos National Laboratories (LANL) database was used to identify the HLA allele(s) of the HIV epitope sequence with CTL activity that can exist within the sequence of the conserved counterpart HIV peptide (Table 9, LANL CTL). The bold HLA class-I supertypes and the bold 2-digit alleles are those on the “Optimal CD8^+ CTL Epitopes” list and those without bold are alleles for potential CTL epitope. […] The HLA class II such as HLA-DRB1 has yet to be fully classified into supertypes, and therefore the 4-digit resolution nomenclatures for the HLA-DRB1 alleles are shown.
(§3) The counterpart HIV-1 peptides of the FIV peptides were also tested for immunogenicity using PBMC and T cells from HIV^+ human subjects. […] The HRT7-1 and HRT7-2 were also tested with cells from HIV^+ subjects on ART. The threshold for positive IFNγ ELISpot response is ≥75 spot-forming units (SFU) per 10^6 PBMC. The threshold for CFSE-based CD4^+ (CD4^+ T) and CD8^+ (CD8^+ T) T-cell proliferation is ≥2% CD4^+ T-cell CFSE^low or CD8^+ T-cell CFSE^low. The threshold of intracellular cytokine staining (ICS) of FACS-based cytolysin (perforin) and cytotoxins (granzymes A and B) in CD4^+ T cells (CyCD4) and CD8^+ T cells (CyCD8) is ≥0.2%. […] The nine HIV-1 peptides in black are the counterpart FIV peptides used in the current MAP vaccine trial, whereas the 13 peptides in blue were not.

[2] = system: CD8^+ T cells from HIV^+ subjects; experiment: FACS-based intracellular staining (ICS) for cytolysin (perforin) and cytotoxins (GrzA, GrzB) in CD8+ T cells; conditions: HIV-1 epitope peptide; HIV+ human subjects; threshold ≥0.2%
Protocol: as §1, §2
The threshold for positive IFNγ and IL2 ELISpot responses is ≥50 spot-forming units (SFU) per 10^6 PBMC. The threshold for CFSE-based CD4^+ and CD8^+ T-cell proliferation is ≥2% CD4^+ T-cell CFSE^low or CD8^+ T-cell CFSE^low. The threshold of FACS-based intracellular cytokine staining (ICS) is ≥0.2%. […] The nine FIV peptides in black were used in the current MAP vaccine trial, whereas the 13 peptides in blue were not used. […] The MAPs and their corresponding peptide(s) were also tested for their ability to enhance or suppress in vitro FIV infection of feline PBMC (E/S of peptides and E/S of MAP).
as §3

| SMILES | CyCD4: CD4+ T-cell cytolysin/cytotoxins (perforin, GrzA & B), frequency of responders [1] | CyCD4 (cytolysin and cytotoxin production of CD4+ T cells), frequency of responders [1] | CyCD8: CD8+ T-cell cytolysin/cytotoxins (perforin, GrzA & B), frequency of responders [2] |
| --- | --- | --- | --- |
| CC[C@H](C)[C@H](NC(=O)[C@H](CC(=O)O)NC(=O)[C@@H](NC(=O)[C@H](C)NC(=O)[C@@H](NC(=O)[C@@H](NC(=O)[C@H](CC(=O)O)NC(=O)[C@@H](NC(=O)[C@@H](NC(=O)[C@H](CCCNC(=N)N)NC(=O)[C@H](CCC(=O)O)NC(=O)CN)[C@@H](C)CC)C(C)C)[C@@H](C)CC)[C@@H](C)CC)[C@@H](C)O)C(=O)N[C@@H](CCC(N)=O)C(=O)N[C@H](C(=O)N[C@@H](CCCCN)C(=O)O)[C@@H](C)O [HIN7-1] (H-GERIVDIIATDIQTK-OH; N-terminus and C-terminus assumed) | − (0%-1.4% (−)) | — (0%-1.4%(—)) | + (12.5%-25% (+)) |
| CC(C)[C@H](NC(=O)CNC(=O)[C@H](CO)NC(=O)[C@H](CCCNC(=N)N)NC(=O)[C@H](Cc1ccccc1)NC(=O)[C@H](CO)NC(=O)[C@H](CCC(=O)O)NC(=O)[C@H](CCC(=O)O)NC(=O)[C@@H]1CCCN1C(=O)[C@@H]1CCCN1C(=O)[C@H](C)NC(=O)[C@@H](N)[C@@H](C)O)C(=O)N[C@@H](CCC(=O)O)C(=O)N[C@H](C(=O)N[C@H](C(=O)N[C@H](C(=O)O)[C@@H](C)O)[C@@H](C)O)[C@@H](C)O [HNC2] (H-TAPPEESFRSGVETTT-OH; N-terminus and C-terminus assumed) | − (0%-1.4% (−)) | – | + (12.5%-25% (+)) |
| CC(C)C[C@H](NC(=O)[C@H](C)NC(=O)[C@@H](N)CCC(=O)O)C(=O)N[C@@H](CC(C)C)C(=O)N[C@@H](CC(=O)O)C(=O)N[C@H](C(=O)NCC(=O)N[C@@H](C)C(=O)N[C@@H](CC(=O)O)C(=O)N[C@@H](CC(=O)O)C(=O)N[C@H](C(=O)N[C@H](C(=O)N[C@@H](CC(C)C)C(=O)N[C@@H](CCC(=O)O)C(=O)O)C(C)C)[C@@H](C)O)[C@@H](C)O [HPR2] (H-EALLDTGADDTVLE-OH; N-terminus and C-terminus assumed) | − (0%-1.4% (−)) | – | − (0%-1.4% (−)) |
| CC(C)C[C@H](NC(=O)[C@H](CCC(=O)O)NC(=O)[C@H](CCCNC(=N)N)NC(=O)[C@H](Cc1ccccc1)NC(=O)[C@H](CC(=O)O)NC(=O)[C@@H](NC(=O)[C@H](CC(C)C)NC(=O)[C@H](CCCCN)NC(=O)[C@H](CCCNC(=N)N)NC(=O)[C@@H](N)Cc1c[nH]c2ccccc12)C(C)C)C(=O)N[C@@H](CC(N)=O)C(=O)N[C@@H](CCCCN)C(=O)N[C@@H](CCCNC(=N)N)C(=O)O [HRT3-4] | ++++ (>54% (++++)) | ++++ (>54% (++++)) | ++++ (>54% (++++)) |
| CC[C@H](C)[C@H](NC(=O)CN)C(=O)N[C@@H](CCCNC(=N)N)C(=O)N[C@@H](Cc1ccc(O)cc1)C(=O)N[C@@H](CCC(N)=O)C(=O)N[C@@H](Cc1ccc(O)cc1)C(=O)N[C@@H](CC(N)=O)C(=O)N[C@H](C(=O)N[C@@H](CC(C)C)C(=O)N1CCC[C@H]1C(=O)N[C@@H](CCC(N)=O)C(=O)NCC(=O)N[C@@H](Cc1c[nH]c2ccccc12)C(=O)N[C@@H](CCCCN)C(=O)NCC(=O)O)C(C)C [HRT7-1] | − (0%-1.4% (−)) | – | − (0%-1.4% (−)) |
| CC[C@H](C)[C@H](NC(=O)[C@H](C)NC(=O)[C@@H]1CCCN1C(=O)[C@H](CO)NC(=O)CNC(=O)[C@H](CCCCN)NC(=O)[C@H](Cc1c[nH]c2ccccc12)NC(=O)CNC(=O)[C@H](CCC(N)=O)NC(=O)[C@@H]1CCCN1C(=O)[C@H](CC(C)C)NC(=O)[C@@H](NC(=O)[C@@H](N)CC(N)=O)C(C)C)C(=O)N[C@@H](Cc1ccccc1)C(=O)O [HRT7-2] | − (0%-1.4% (−)) | – | − (0%-1.4% (−)) |
| CC[C@H](C)[C@H](NC(=O)[C@H](CCCCN)NC(=O)[C@@H](NC(=O)[C@@H](NC(=O)[C@H](CCCCN)NC(=O)[C@H](Cc1ccc(O)cc1)NC(=O)[C@H](CCCCN)NC(=O)[C@H](Cc1ccc(O)cc1)NC(=O)[C@H](CC(C)C)NC(=O)[C@H](CCC(=O)O)NC(=O)[C@H](CO)NC(=O)[C@H](CCCNC(=N)N)NC(=O)[C@H](Cc1c[nH]c2ccccc12)NC(=O)[C@H](CC(N)=O)NC(=O)[C@@H](N)CC(=O)O)C(C)C)C(C)C)C(=O)O [HSU4] (H-DNWRSELYKYKVVKI-OH; N-terminus and C-terminus assumed) | − (0%-1.4% (−)) | – | + (12.5%-25% (+)) |
| CC[C@H](C)[C@H](NC(=O)CNC(=O)[C@H](CC(C)C)NC(=O)[C@H](CC(C)C)NC(=O)[C@H](CCC(N)=O)NC(=O)[C@H](CCC(N)=O)NC(=O)[C@H](CC(=O)O)NC(=O)[C@H](CCCCN)NC(=O)[C@H](CC(C)C)NC(=O)[C@@H](N)Cc1ccc(O)cc1)C(=O)N[C@@H](Cc1c[nH]c2ccccc12)C(=O)NCC(=O)N[C@@H](CS)C(=O)O [HTM4-3] (H-YLKDQQLLGIWGC-OH; N-terminus and C-terminus assumed) | − (0%-1.4% (−)) | – | + (12.5%-25% (+)) |
| CC[C@H](C)[C@H](NC(=O)[C@H](CCCNC(=N)N)NC(=O)[C@@H](N)CC(C)C)C(=O)N[C@H](C(=O)N[C@@H](Cc1ccccc1)C(=O)N[C@@H](C)C(=O)N[C@H](C(=O)N[C@@H](CC(C)C)C(=O)N[C@@H](CO)C(=O)N[C@H](C(=O)N[C@H](C(=O)N[C@@H](CC(N)=O)C(=O)N[C@@H](CCCNC(=N)N)C(=O)N[C@H](C(=O)N[C@@H](CCCNC(=N)N)C(=O)N[C@@H](CCC(N)=O)C(=O)O)C(C)C)C(C)C)[C@@H](C)CC)C(C)C)C(C)C [HTM8(20)] (H-LRIVFAVLSIVNRVRQ-OH; N-terminus and C-terminus assumed) | − (0%-1.4% (−)) | – | − (0%-1.4% (−)) |
| CSCC[C@H](NC(=O)[C@@H](NC(=O)[C@H](CC(N)=O)NC(=O)[C@H](CC(C)C)NC(=O)[C@H](CC(=O)O)NC(=O)[C@H](CCC(N)=O)NC(=O)[C@@H]1CCCN1)[C@@H](C)O)C(=O)N[C@@H](CC(C)C)C(=O)N[C@@H](CC(N)=O)C(=O)N[C@H](C(=O)N[C@H](C(=O)NCC(=O)NCC(=O)N[C@@H](Cc1c[nH]cn1)C(=O)N[C@@H](CCC(N)=O)C(=O)O)C(C)C)[C@@H](C)O [Hp4-3] (H-PQDLNTMLNTVGGHQ-OH; N-terminus and C-terminus assumed) | − (0%-1.4% (−)) | – | ++ (25.1%-40% (++)) |
| CSCC[C@H](NC(=O)[C@H](Cc1c[nH]c2ccccc12)NC(=O)[C@H](CC(N)=O)NC(=O)[C@H](CCCCN)NC(=O)[C@@H](NC(=O)[C@H](CCC(=O)O)NC(=O)[C@H](CCC(N)=O)NC(=O)[C@H](CO)NC(=O)[C@H](C)N)C(C)C)C(=O)N[C@H](C(=O)N[C@@H](CCC(=O)O)C(=O)N[C@H](C(=O)N[C@@H](CC(C)C)C(=O)N[C@@H](CC(C)C)C(=O)N[C@H](C(=O)O)C(C)C)[C@@H](C)O)[C@@H](C)O [Hp14-3 (15-2)] (H-ASQEVKNWMTETLLV-OH) | ++++ (>54% (++++)) | – | ++++ (>54% (++++)) |
